Results from patent publication US20140357688A1, “METHOD FOR INHIBITING EZH2 EXPRESSION IN BREAST CANCER CELLS” (Yung Shin Pharm. Ind. Co., Ltd., priority 2013, published 2014).
Peptide text beside a SMILES is read from it. * marks the point of attachment. Cbz = O=C(OCc1ccccc1)*

Tested on: EZH2
Test: EZH2 ubiquitination assay
Type: cell-based, human
Conditions: inhibitor pretreatment, then 3 μM YC-1
Procedure: (A) Cells were pretreated with cyclohexamide (30 μM) for 1 h and followed by induction with vehicle (DMSO) or YC-1 (3 μM) for indicated time. Cells were harvested for detection of protein expression. (B)(C) Cells were incubated with 3 μM YC-1 for 6 h in the presence of vehicle, 3 μM MG-132 or 30 μM NH4Cl. Cells were harvested for detection of protein expression (B) or cell viability assay (C). The levels of protein expression were quantitated and shown under blots. (D) After treatment of 3 μM YC-1 for indicated time, cells were harvested and lysed for immunoprecipitation and western blot analysis described in Materials and Methods.
Cells were lysed with MLB buffer (25 mM HEPES, pH 7.5, 150 mM NaCl, 1% Igepal CA-630, 10 mM MgCl2, 1 mM EDTA, 2% glycerol, 1 mM Na3VO4, 1 mM NaF, 1 mM PMSF, 10 μg/ml of leupeptin, aprotinin, and pepstatin A). After sonication, cell lysates were centrifugated at 12,000×g for 10 min at 4° C. Supernatants were incubated with anti-EZH2 antibody (BD Biosciences) and protein A Sepharose beads (GE Health Care) overnight at 4° C. After washing with MLB buffer, precipitated proteins were boiled in 1× Laemmli sample buffer and then separated with SDS-PAGE. The ubiquitination levels of EZH2 were recognized by using anti-Ubiquitn monoclonal antibody.

Row | Compound | effect of inhibitor on YC-1-induced EZH2 ubiquitination
1 | COc1cc2ncnc(Nc3cccc(Cl)c3)c2cc1OC [AG1478] | not
2 | CNC(=O)c1cc(Oc2ccc(NC(=O)Nc3ccc(Cl)c(C(F)(F)F)c3)cc2)ccn1 [Bay-43-9006] | significantly suppressed
3 | COc1cccc(-c2cc(=O)c3ccccc3o2)c1N [PD98059] | could be blocked
4 | COc1cc2ncnc(Nc3ccc(Oc4ccccc4)cc3)c2cc1OC [SrcI] | significantly suppressed
5 | O=c1c(-c2ccc(O)cc2)coc2cc(O)cc(O)c12 [genistein] | significantly suppressed

Tested on: EZH2
Test: Western blot of EZH2 protein expression in MDA-MB-468 cells
Type: cell-based, human
Conditions: DZNep 3, 10, 30 μM, 24 h; ten folds of concentration higher than YC-1
Procedure: Cells were harvested and performed with western blotting analysis. […] The levels of protein expression were quantitated and shown under blots. (C) Cells were transfected with EZH2 shRNA for 0, 1, 2, 3, and 4 days and collected for determination of cell viability (left) and protein expression (right). (D)(E) After 4 days of EZH2 knockdown, cells were incubated with 3 μM YC-1 for 4 h and detected cell viability (D) and protein contents (E). (F) Tumor specimens were isolated and protein was extracted for western blot analysis.
Cells were lysed in PBS containing proteinase inhibitor and phosphatase inhibitors and sonication. Protein concentration was measured using the Bio-Rad protein assay kit (Bio-Rad Laboratories, Hercules, Calif., USA). Lysate protein was separated by electrophoresis of SDS-PAGE and transferred to Immobilon P membrane (EMD Millipore). The membranes were incubated with appropriate primary antibodies and horseradish peroxidase-conjugated secondary antibodies (EMD Millipore). The signaling was visualized using Chemiluminescence substrate kit (EMD Millipore) and collected by the Luminesence image analyzer, LAS4000 (Fuji Photo Film Co., Tokyo, Japan). The band intensities were analyzed and quantified by the Multi Gauge software (Fuji Photo Film).

Row | Compound | EZH2 inhibition
6 | Nc1nccc2c1ncn2[C@@H]1C=C(CO)[C@@H](O)[C@H]1O [DZNep, 3-deazaneplanocin A] | failed to inhibit EZH2

Same assay, conditions: inhibitor pretreatment, then 3 μM YC-1 for 6 h

Row | Compound | effect of inhibitor on YC-1-induced EZH2 inhibition
7 | COc1cc2ncnc(Nc3cccc(Cl)c3)c2cc1OC [AG1478] | not affected
8 | CNC(=O)c1cc(Oc2ccc(NC(=O)Nc3ccc(Cl)c(C(F)(F)F)c3)cc2)ccn1 [Bay-43-9006] | attenuated
9 | COC(=O)[C@@]1(OC)C[C@H]2O[C@]1(C)n1c3ccccc3c3c4c(c5c6ccccc6n2c5c31)C(=O)N(C)C4 [KT5823] | failed to have effects
10 | CC(C)C[C@@H](C=O)NC(=O)[C@H](CC(C)C)NC(=O)[C@H](CC(C)C)NC(=O)OCc1ccccc1 [MG-132] (Cbz-Leu-Leu-Leu-aldehyde) | significantly prevented EZH2 degradation
11 | Cl.N [NH4Cl, reference compound] | not
12 | O=c1onc2n1-c1cc(Br)ccc1OC2 [NS2028] | failed to have effects
13 | O=c1onc2cnc3ccccc3n12 [ODQ] | failed to have effects
14 | COc1cccc(-c2cc(=O)c3ccccc3o2)c1N [PD98059] | almost completely abolished
15 | COc1cc2ncnc(Nc3ccc(Oc4ccccc4)cc3)c2cc1OC [SrcI] | attenuated
16 | CC(C)=CCC/C(C)=C/CC/C(C)=C/CSc1ccccc1C(=O)O [farnyesyl thiosalicylic acid] | had no effect
17 | O=c1c(-c2ccc(O)cc2)coc2cc(O)cc(O)c12 [genistein] | attenuated
18 | CCCC[C@@H](C)/C=C(C)/C=C(\C)C(=O)NC1=C[C@@](O)(/C=C/C=C/C=C/C(=O)NC2=C(O)CCC2=O)[C@@H]2O[C@@H]2C1=O [manumycin A] | failed to influent
19 | CC[C@H](CO)Nc1nc(NCc2ccccc2)c2ncn(C(C)C)c2n1 [roscovitine] | failed to modulate

Tested on: MDA-MB-468
Test: MTT cell viability assay
Type: cell-based, human
Conditions: DZNep, 24 h; ten folds of concentration higher than YC-1
Procedure: (A) Cells were treated with indicated concentration of YC-1 for 6, 24, and 48 h. Cell viability was determined by MTT method. (B) MDA-MB-468 cells were treated with 3 μM YC-1 for 0, 6, and 12 h, and then stained with fluorescence diacetate (FDA) and propidium iodide (PI). Cell morphology was assessed by fluorescence microscopy with magnification ×20 (upper 3 rows) or ×40 (lowest row). (C) MDA-MB-468 cells were treated with 3 μM YC-1 for 24 h, cells were lysed and subjected to western blot analysis described in Materials and Methods. β-actin is a loading control. Blots were representative of results from three independent experiments. (D) Cells were treated with vehicle (DMSO, as control) or 3 μM YC-1 for 6 h. The cell cycles were analyzed by flow cytometry. (E) Cells were treated with indicated concentration of YC-1 and then performed with clonogenic assay.
Human breast cancer cells, MDA-MB-468, MDA-MB-157, MDA-MB-231, MDA-MB-453, and Hs578T, and immortalized mammary epithelial cell lines, 184A1 and MCF-10A, were obtained from American Type Culture Collection (Manassas, Va., USA). MDA-MB-468, MDA-MB-157, MDA-MB-231, and MDA-MB-453 were cultured in DMEM/F12 medium supplemented with 10% FBS, 100 U/ml penicillin, and 100 μg/ml streptomycin. Hs578T was cultured in RPMI 1640 medium containing 10% FBS, 2 mM L-glutamine, 100 U/ml penicillin, and 100 μg/ml streptomycin. 184A1 and MCF-10A were cultured in DMEM/F12 medium supplemented with 5% horse serum, 0.5 μg/ml hydrocortisone, 10 μg/ml insulin, 20 ng/ml epidermal growth factor, 0.1 μg/ml cholera enterotoxin, 2 mM L-glutamine, 100 U/ml penicillin, and 100 μg/ml streptomycin. All cells were maintained in a humidified incubator containing 5% CO2. For hypoxia treatment, cells were incubated in a chamber flushed with 1% 02, 5% CO2, and 94% N2 at 37° C.
Cell viability was measured by 3-(4,5-Dimethyl-2-thiazolyl)2,5-diphenyl-2H-tetrazolium bromide (MTT) assay.

Row | Compound | activation of apoptosis / cell viability
20 | Nc1nccc2c1ncn2[C@@H]1C=C(CO)[C@@H](O)[C@H]1O [DZNep, 3-deazaneplanocin A] | failed to inhibit EZH2 and activate apoptosis

Same assay, conditions: inhibitor pretreatment, then 3 μM YC-1 for 6 h

Row | Compound | effect of inhibitor on YC-1-induced inhibition of cell viability
21 | CNC(=O)c1cc(Oc2ccc(NC(=O)Nc3ccc(Cl)c(C(F)(F)F)c3)cc2)ccn1 [Bay-43-9006] | attenuated
22 | COC(=O)[C@@]1(OC)C[C@H]2O[C@]1(C)n1c3ccccc3c3c4c(c5c6ccccc6n2c5c31)C(=O)N(C)C4 [KT5823] | failed to have effects
23 | CC(C)C[C@@H](C=O)NC(=O)[C@H](CC(C)C)NC(=O)[C@H](CC(C)C)NC(=O)OCc1ccccc1 [MG-132] (Cbz-Leu-Leu-Leu-aldehyde) | reversed the YC-1-induced inhibition of cell viability
24 | O=c1onc2n1-c1cc(Br)ccc1OC2 [NS2028] | failed to have effects
25 | O=c1onc2cnc3ccccc3n12 [ODQ] | failed to have effects
26 | COc1cccc(-c2cc(=O)c3ccccc3o2)c1N [PD98059] | almost completely abolished
27 | COc1cc2ncnc(Nc3ccc(Oc4ccccc4)cc3)c2cc1OC [SrcI] | attenuated
28 | O=c1c(-c2ccc(O)cc2)coc2cc(O)cc(O)c12 [genistein] | attenuated
29 | CC[C@H](CO)Nc1nc(NCc2ccccc2)c2ncn(C(C)C)c2n1 [roscovitine] | failed to modulate

Tested on: c-Cbl
Test: Western blot of c-Cbl phosphorylation and expression
Type: cell-based, human
Conditions: pretreatment 1 h, then 3 μM YC-1 for 6 h
Procedure: (A) c-Cbl knockdown MDA-MB-468 cells were treated with 3 μM YC-1 for 4 h. Cell were harvested for detection of protein expression. (B) Cells were treated with 3 μM YC-1 for indicated time. Cells were collected and c-Cbl phosphorylation was detected. […] (D) Cells were pretreated with MG-132 and followed by 3 μM YC-1 induction for indicated time. Cells were harvested and lysed for immunoprecipitation assay. The association between c-Cbl and EZH2 were determined by western blotting analysis and probed with anti-EZH2 or anti-c-Cbl antibody. Membranes were stripped and reprobed with anti-c-Cbl or anti-EZH2 antibody to check the input. […] Then cells were collected and lysate protein was subjected for the detection of the c-Cbl-EZH2 complexes. Cells were lysed in PBS containing proteinase inhibitor and phosphatase inhibitors and sonication. Protein concentration was measured using the Bio-Rad protein assay kit (Bio-Rad Laboratories, Hercules, Calif., USA). Lysate protein was separated by electrophoresis of SDS-PAGE and transferred to Immobilon P membrane (EMD Millipore). The membranes were incubated with appropriate primary antibodies and horseradish peroxidase-conjugated secondary antibodies (EMD Millipore). The signaling was visualized using Chemiluminescence substrate kit (EMD Millipore) and collected by the Luminesence image analyzer, LAS4000 (Fuji Photo Film Co., Tokyo, Japan). The band intensities were analyzed and quantified by the Multi Gauge software (Fuji Photo Film).

Row | Compound | effect of inhibitor on YC-1-induced inhibition of c-Cbl
30 | CC(C)C[C@@H](C=O)NC(=O)[C@H](CC(C)C)NC(=O)[C@H](CC(C)C)NC(=O)OCc1ccccc1 [MG-132] (Cbz-Leu-Leu-Leu-aldehyde) | could be reversed
31 | Cl.N [NH4Cl, reference compound] | not

Tested on: EZH2-c-Cbl-ERK
Test: Co-immunoprecipitation of c-Cbl and EZH2
Type: cell-based, human
Conditions: PD98059 10 μM with MG-132, then 2 h 3 μM YC-1
Procedure: (A) c-Cbl knockdown MDA-MB-468 cells were treated with 3 μM YC-1 for 4 h. Cell were harvested for detection of protein expression. (B) Cells were treated with 3 μM YC-1 for indicated time. Cells were collected and c-Cbl phosphorylation was detected. (C) Cells were pretreated with MG-132 (3 μM) or NH4Cl (30 μM) for 1 h followed by 3 μM YC-1 induction for 6 h. (D) Cells were pretreated with MG-132 and followed by 3 μM YC-1 induction for indicated time. Cells were harvested and lysed for immunoprecipitation assay. The association between c-Cbl and EZH2 were determined by western blotting analysis and probed with anti-EZH2 or anti-c-Cbl antibody. Membranes were stripped and reprobed with anti-c-Cbl or anti-EZH2 antibody to check the input. (E) Cells were preincubated with or without PD98059 (10 μM) in the presence of MG-132 for 1 h prior to 2 h-treatment of 3 μM YC-1. Then cells were collected and lysate protein was subjected for the detection of the c-Cbl-EZH2 complexes.
Cells were lysed with RIPA buffer (50 mM Tris-C1, pH 7.5, 1% Igepal CA-630, 150 mM NaCl, 1 mM EDTA, 1 mM Na3VO4, 1 mM NaF, 1 mM PMSF, 10 μg/ml of leupeptin, aprotinin, and pepstatin A) for 30 min at 4° C. One milligram of cell lysate was incubated with anti-EZH2 or anti-c-Cbl antibody and protein A-Sepharose beads, then gently rotated at 4° C. overnight. […]

Row | Compound | effect of inhibitor on EZH2-c-Cbl-ERK complex
32 | COc1cccc(-c2cc(=O)c3ccccc3o2)c1N [PD98059] | could be disrupted
